Results reported in US7473669B2, “Substituted 4,5-dihydro-1,2,4-triazin-6-ones, 1,2,4-triazin-6-ones, and their use as fungicides” (priority 2005, dated 2009).
Where two headings read alike, the source gives them in different places.

How the values were obtained:
[1] = tested on: Puccinia recondita tritici; assay: Leaf Rust of Wheat greenhouse one-day protectant test; format: in vivo; settings: 24 h, read-out: PUCCRT percent control rating
[2] = tested on: Erysiphe cichoracaerum; assay: Cucumber Powdery Mildew greenhouse one-day protectant test; format: in vivo; settings: 24 h, read-out: ERYSCI percent control rating
[3] = tested on: Phytophthora infestans; assay: whole plant or invertebrate; format: in vivo; settings: in Solanum lycopersicum, 24 h
[4] = tested on: Colletotricum lagenarium; assay: Cucumber Anthracnose greenhouse one-day protectant test; format: in vivo; settings: Cucumis sativus, 24 h, read-out: COLLLA percent control rating
[5] = tested on: Pyricularia oryzae; assay: whole plant or invertebrate; format: in vivo; settings: 24 h, read-out: PYRIOR percent control rating
[6] = tested on: Leptosphaeria nodorum; assay: Glume Blotch of Wheat greenhouse one-day protectant test; format: in vivo; settings: Parastagonospora nodorum, 24 h, read-out: LEPTNO percent control rating
[7] = wheat plants, one-day protectant test, 200 ppm application rate
[8] = cucumber plants, one-day protectant test, 200 ppm application rate
[9] = read-out: PHYTIN percent control rating, tomato plants, one-day protectant test, 200 ppm application rate

| SMILES | melting point [°C] | pest or weed control at 200 ppm [1, 7] [%] | pest or weed control at 200 ppm [2, 8] [%] | pest or weed control at 200 ppm [3, 9] [%] | pest or weed control at 200 ppm [4, 8] [%] | pest or weed control at 200 ppm [5] [%] | pest or weed control at 200 ppm [6, 7] [%] | pest or weed control at 200 ppm [1] [%] | pest or weed control at 200 ppm [2] [%] | pest or weed control at 200 ppm ([3]; read-out: PHYTIN percent control rating) [%] | pest or weed control at 200 ppm [4] [%] | pest or weed control at 200 ppm [6] [%] |
| --- | --- | --- | --- | --- | --- | --- | --- | --- | --- | --- | --- | --- |
| O=c1cnc(-c2cccc(Cc3ccccc3)c2)nn1CC(F)(F)F [Compound 91, 3-(3-Benzylphenyl)-1-(2,2,2-trifluoroethyl)-1,2,4-triazin-6(1H)-one] | 95 to 96 | 80 to 100 | 80 to 100 | 0 to 49 | 80 to 100 | 80 to 100 | 80 to 100 |  |  |  |  |  |
| CON=C(c1ccccc1)c1cccc(C2=NN(CC(F)(F)F)C(=O)CN2)c1 [Compound 75, 3-{3-[(Z)-(Methoxyimino)phenyl)methyl]phenyl}-1-(2,2,2-trifluoroethyl)-4,5-dihydro-1,2,4-triazin-6(1H)-one] | 119 to 123 | 80 to 100 | 0 to 49 | 0 to 49 | 0 to 49 | 80 to 100 | 80 to 100 |  |  |  |  |  |
| O=C1C(SC2CCCCC2)NC(c2cccc(-c3ccccc3OC(F)(F)F)c2)=NN1CC(F)(F)F (centres unmarked) [Compound 52] |  | 80 to 100 | 0 to 49 | 0 to 49 | 0 to 49 | 80 to 100 | 80 to 100 |  |  |  |  |  |
| O=C1CNC(c2cccc(O)c2)=NN1CC(F)(F)F [Compound 22] |  | 50 to 79 | 0 to 49 | 0 to 49 | 0 to 49 | 0 to 49 | 0 to 49 |  |  |  |  |  |
| Cc1cc(C)cc(C2=NN(CC(F)(F)F)C(=O)C(SCCO)N2)c1 (centres unmarked) [Compound 38] |  | 80 to 100 | 0 to 49 | 0 to 49 | 0 to 49 | 80 to 100 | 80 to 100 |  |  |  |  |  |
| O=C1CNC(c2cccc(OS(=O)(=O)C(F)(F)F)c2)=NN1CC(F)(F)F [Compound 23] |  | 50 to 79 | 0 to 49 | 0 to 49 | 0 to 49 | 80 to 100 | 50 to 79 |  |  |  |  |  |
| O=C(Nc1c(Cl)cccc1Cl)Oc1cccc(C2=NN(CC(F)(F)F)C(=O)CN2)c1 [Compound 25] |  |  |  |  |  | 0 to 49 |  | 0 to 49 | 0 to 49 | 0 to 49 | 0 to 49 | 0 to 49 |
| O=C1CNC(c2cccc(C#Cc3ccccc3)c2)=NN1CC(F)(F)F [Compound 70] |  | 0 to 49 | 0 to 49 | 0 to 49 | 0 to 49 | 80 to 100 | 0 to 49 |  |  |  |  |  |
| O=c1cnc(-c2ccc(Oc3cccnc3)cc2)nn1CC(F)(F)F [Compound 78] |  | 80 to 100 | 0 to 49 | 80 to 100 | 80 to 100 | 80 to 100 | 50 to 79 |  |  |  |  |  |
| Cc1cc(C2=NN(CC(F)(F)F)C(=O)C(SC3CCCCC3)N2)ccc1Br (centres unmarked) [Compound 43] |  | 80 to 100 | 0 to 49 | 80 to 100 | 80 to 100 | 80 to 100 | 80 to 100 |  |  |  |  |  |
| O=c1cnc(-c2cc(Br)cc(-c3ccsc3)c2)nn1CCc1ccccc1 [Compound 83] |  | 0 to 49 | 0 to 49 | 0 to 49 | 0 to 49 | 0 to 49 | 50 to 79 |  |  |  |  |  |
| O=c1cnc(-c2cccc(C#Cc3ccccc3)c2)nn1CC(F)(F)F [Compound 92] |  | 80 to 100 | 0 to 49 | 50 to 79 | 80 to 100 | 80 to 100 | 50 to 79 |  |  |  |  |  |
| CS(=O)(=O)OCCN1N=C(c2ccc(Cl)nc2)NCC1=O [Compound 1] |  | 0 to 49 | 0 to 49 | 0 to 49 | 0 to 49 | 50 to 79 | 0 to 49 |  |  |  |  |  |
| O=C1CNC(c2cccc(-c3ccc(Oc4ccccc4)cc3)c2)=NN1CC(F)(F)F [Compound 30] |  | 50 to 79 | 0 to 49 | 0 to 49 | 0 to 49 | 0 to 49 | 50 to 79 |  |  |  |  |  |
| Cc1cc(C)cc(C2=NN(Cc3c(F)c(F)c(F)c(F)c3F)C(=O)CN2)c1 [Compound 63] |  | 0 to 49 | 0 to 49 | 0 to 49 | 0 to 49 | 50 to 79 | 50 to 79 |  |  |  |  |  |
| O=C1CNC(c2cccc(/C=C\c3ccccc3)c2)=NN1CC(F)(F)F [Compound 71] |  | 50 to 79 | 0 to 49 | 0 to 49 | 0 to 49 | 50 to 79 | 80 to 100 |  |  |  |  |  |
| O=C1CNC(c2cccc(Oc3cc(C(F)(F)F)cc(C(F)(F)F)n3)c2)=NN1CC(F)(F)F [Compound 24] |  | 80 to 100 | 0 to 49 | 0 to 49 | 0 to 49 | 0 to 49 | 80 to 100 |  |  |  |  |  |
| O=C1CNC(c2ccc(-c3cc(Cl)cc(Cl)c3)nc2)=NN1CCF [Compound 34] |  | 80 to 100 | 0 to 49 | 50 to 79 | 50 to 79 | 80 to 100 | 80 to 100 |  |  |  |  |  |
| O=C1CNC(c2cccc(OCc3ccccc3)c2)=NN1CC(F)(F)F [Compound 17] |  | 80 to 100 | 0 to 49 | 0 to 49 | 80 to 100 | 80 to 100 | 80 to 100 |  |  |  |  |  |
| O=C1CNC(c2cc(C=Cc3ccccc3)cc(-c3ccsc3)c2)=NN1CC(F)(F)F [Compound 26] |  | 0 to 49 | 0 to 49 | 0 to 49 | 0 to 49 | 0 to 49 | 50 to 79 |  |  |  |  |  |
| O=C1CNC(c2ccc(Oc3cccnc3)cc2)=NN1CC(F)(F)F [Compound 59] |  | 80 to 100 | 0 to 49 | 50 to 79 | 0 to 49 | 50 to 79 | 50 to 79 |  |  |  |  |  |
| O=C1CNC(c2cc(Cl)cc(Cl)c2)=NN1CCOc1ccccc1 [Compound 66] |  | 80 to 100 | 0 to 49 | 0 to 49 | 80 to 100 | 80 to 100 | 80 to 100 |  |  |  |  |  |
| O=c1cnc(-c2cc(Br)cc(-c3ccsc3)c2)nn1Cc1ccccc1 [Compound 82] |  | 0 to 49 | 0 to 49 | 0 to 49 | 0 to 49 | 50 to 79 | 80 to 100 |  |  |  |  |  |
| O=C1CNC(c2cc(Br)cc(-c3ccsc3)c2)=NN1Cc1ccccc1 [Compound 68] |  | 0 to 49 | 0 to 49 | 0 to 49 | 0 to 49 | 80 to 100 | 80 to 100 |  |  |  |  |  |
| Cc1cc(C)cc(C2=NN(CCOC(=O)Nc3ccc4c(c3)OCO4)C(=O)CN2)c1 [Compound 3] |  | 80 to 100 | 0 to 49 | 0 to 49 | 50 to 79 | 80 to 100 | 50 to 79 |  |  |  |  |  |
| Cc1cc(C)cc(C2=NN(CC(F)(F)F)C(=O)C(OCc3ccccc3)N2)c1 (centres unmarked) [Compound 40] |  | 80 to 100 | 0 to 49 | 0 to 49 | 80 to 100 | 80 to 100 | 80 to 100 |  |  |  |  |  |
| O=C1CNC(c2csc(-c3ccccc3)c2)=NN1CC(F)(F)F [Compound 60] |  | 0 to 49 | 0 to 49 | 0 to 49 | 0 to 49 | 80 to 100 | 80 to 100 |  |  |  |  |  |
| O=C1CNC(c2cc(Cl)cc(Cl)c2)=NN1C(=O)C(F)(F)F [Compound 11] |  | 0 to 49 | 0 to 49 | 0 to 49 | 50 to 79 | 50 to 79 | 50 to 79 |  |  |  |  |  |
